Source: article PMC7700248, “Chemical and Biological Study of Novel Aplysiatoxin Derivatives from the Marine Cyanobacterium Lyngbya sp” (Toxins, 2020)
Like-named read-outs stand apart in the source and are kept apart here.

How the values were obtained:
potassium channel Kv1.5 [1] = biological target: T1, potassium channel Kv1.5 (Homo sapiens, UniProt P22460); conditions: read-out: IC50, inhibitory activity against Kv1.5, cited from earlier work
T1 construct: expressed in transfected cells; host or cells: Chinese hamster ovary (CHO) cells

Artemia salina = assay: Brine shrimp toxicity (lethality) assay; type: in vivo; conditions: 24 h; for survival at 0.1 µM / survival at 1 µM / survival at 10 µM / survival at 30 µM: Artemia salina, read-out: Percentage of Survival of Artemia salina after 24 h
Procedure: The lethality assay of brine shrimp A. salina was developed by Vanhaecke et al.. […] Commercially available A. salina or brine shrimp cysts were purchased and cultivated in 3.2% of saline water. Before cultivation, the saline was aerated, and then cysts were kept at room temperature for 24 h. For toxicity screening, hatched larvae were collected and introduced in saline water. Add 0.9% saline water and approximately the same number of larvae 30 per well to make a 96-wells test culture plate. ATXs with 0.1 μM, 1 μM, 10 μM, 30 μM were added to the test culture plate, while the equal volume of dimethyl sulfoxide (DMSO) (Aladdin, Shanghai, China) and dichloromethane (Aladdin, Shanghai, China) were added as blank control test and positive control separately. After 24 h at 25 °C, the percent of survival of A. salina was calculated (Supplementary Materials 1.3.2).
Figure S1.3.1.2. […]
Figure S1.3.1.3. […]
1.3.2. Brine Shrimp Cytotoxicity Assay
Commercially available Artemia salina (A. salina) or brine shrimp cysts were purchased and cultivated in 3.2% of saline water. Before cultivation, the saline was aerated, and then cysts were kept at room temperature for 24 h. For toxicity screenin g, hatched larvae were collected and introduced in saline water. Add saline water and equivalent larvae in per well of 96 wells to make test culture plate.
Aplysiatoxins with 0.1 μM, 1 μM, 10 μM, 30 μM was added to test culture plate, while DMSO and dichloromethane were added as blank control test and positive control separately. After 24 h in 25 °C, the percent of survival of A. salina was calculated. […]

potassium channel Kv1.5 [2] = biological target: T1, potassium channel Kv1.5; assay: Kv1.5 ion channel inhibitory experiment (whole-cell patch clamp, CHO cells); type: cell-based
Procedure: Cell preparation: the day before the experiment, digestion of Chinese hamster ovary (CHO) cells (Sigma Chemical Co., St. Louis, MO, USA) with a density of 60–80% by trypsin, and split into some small glass plates, which placed in 35 mm petri dish, then added 10% fetal bovine serum (FBS) (Gibco, CA, USA), and Dulbecco’s modified eagle medium (DMEM) (HyClone, Logan, UT, USA) culture medium without P/S was cultured overnight in an incubator [35, 36, 37] (Supplementary Materials 1.3.1).
Electrophysiology: the cells were transferred to a perfusion tank and perfused with extracellular fluid. The intracellular fluid (mM) was: K Aspartate, 130; MgCl2, 5; EGTA 5; HEPES, 10; Tris-ATP 4; pH 7.2 (KOH titration). The intracellular fluid was stored in small portions in a refrigerator at −80 °C and thawed on the day of the experiment. The electrodes were filled with intracellular fluid and drawn with PC-10 (Narishige, Japan). Whole-cell patch-clamp recording, noise is filtered using one-fifth of the sampling frequency. The cells were clamped at −80 mV and then depolarized to 20 mV with a square wave lasting 2 s to obtain Kv1.5 current. This procedure is repeated every 20 s. After it was stabilized, compound 1, compound 2, and acacetin were perfused, and when the reaction was stabilized, the strength of the blocking was calculated (Supplementary Materials 1.3.1). […]
detection at 190 nm) to afford twenty‐one subfractions (F.D.1‐21). […]
Electrophysiology. […] After it was stabilized, compound 1, compound 2, and acacetin were perfused, and when the reaction was stabilized, the strength of the blocking was calculated.
Data analysis and statistics. […] The IC50 value was determined by fitting the data points to the equation. […]
Figure S1.3.1.1. (A) Kv1.5 traces elicited by 5 s pulses from −80 to + 20 mV and tail currents recorded at −80 mV in the absence and presence of 0.1 μM, 0.3 μM, 1 μM, 3 μM, 10 μM, and 30 μM neo‐ […]

protein kinase C (PKC) = conditions: ref [20],[21],[34]; cited from earlier work

T1 sequence (P22460 whole entry): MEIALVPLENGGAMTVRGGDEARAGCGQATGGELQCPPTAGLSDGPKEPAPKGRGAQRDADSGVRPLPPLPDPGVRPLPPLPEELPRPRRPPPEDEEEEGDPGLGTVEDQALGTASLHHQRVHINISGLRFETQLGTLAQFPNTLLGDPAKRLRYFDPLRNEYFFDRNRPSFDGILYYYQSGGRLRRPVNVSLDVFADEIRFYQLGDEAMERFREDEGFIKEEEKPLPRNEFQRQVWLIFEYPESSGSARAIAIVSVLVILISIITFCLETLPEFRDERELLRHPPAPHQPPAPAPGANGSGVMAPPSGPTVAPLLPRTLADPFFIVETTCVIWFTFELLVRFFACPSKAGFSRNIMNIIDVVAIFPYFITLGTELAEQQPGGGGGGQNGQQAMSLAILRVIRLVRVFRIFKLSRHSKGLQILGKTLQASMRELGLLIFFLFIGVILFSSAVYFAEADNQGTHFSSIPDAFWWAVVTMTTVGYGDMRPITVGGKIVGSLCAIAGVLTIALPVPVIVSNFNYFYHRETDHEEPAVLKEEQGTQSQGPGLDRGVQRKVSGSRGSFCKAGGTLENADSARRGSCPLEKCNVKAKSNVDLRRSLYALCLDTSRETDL

Compound	survival at 0.1 µM (Artemia salina) [%]	survival at 1 µM (Artemia salina) [%]	survival at 10 µM (Artemia salina) [%]	survival at 30 µM (Artemia salina) [%]	effect on survival of A. salina (in words) (Artemia salina; 30 µM)	concentration at which survival of A. salina began to be influenced (Artemia salina) [µM]	other results
oscillatoxin E [OAT E]							IC50 (potassium channel Kv1.5 [1]; ref [33]): 790 ± 30 nM
COC(CCC(C)C1OC(=O)C(C)(C)CC(C)=C(CC(=O)OC2CC(=O)OC2C)C(=O)CC1C)c1cccc(O)c1 (centres unmarked) [NEO-C, neo-debromoaplysiatoxin C]	98.7 ± 2.31	99 ± 1.65	98.9 ± 1.92	94.9 ± 5.27			
COc1ccc(-c2cc(=O)c3c(O)cc(O)cc3o2)cc1 [acacetin]							IC50 (potassium channel Kv1.5 [2]; Kv1.5 expression in CHO cells, holding potential −80 mV, mean ± SEM of 3 to 5 measurements, Hill fit, read-out: IC50, inhibitory effect on Kv1.5 current): 5960 ± 560 nM
COC(CCC(C)C1OC2(C=CC1C)OC(C)(C(=O)CC(=O)OC1CC(=O)OC1C)CC2(C)C)c1cccc(O)c1 (centres unmarked) [Compound 2, neo-debromoaplysiatoxin H]	97.3 ± 2.38	98.9 ± 1.93	97.3 ± 4.62	95.5 ± 1.93	no apparent effect		IC50 (potassium channel Kv1.5 [2]): 1460 ± 140 nM
COC(CCC(C)C1OC23CC(OC(=O)CC(C(C)O)OC(=O)CC(OC)(O2)C(C)CC3(C)C)C1C)c1cccc(O)c1 (centres unmarked) [3-OCH3 DAT, 3-methoxydebromoaplysaitoxin]	94.5 ± 1.87	85.8 ± 6.3	0	0		10	
COC(CCC(C)C1OC23CC(OC(=O)CC(C(C)O)OC(=O)CC(=C(C)CC2(C)C)O3)C1C)c1cccc(O)c1 (centres unmarked) [Anhydro DAT, anhydrodebromoaplysiatoxin]	94 ± 3.46	91.3 ± 6.94	0	0		10	
COC(CCC(C)C1OC2(C=CC1C)CC(=O)C(C)CC2(C)C)c1cccc(O)c1 (centres unmarked) [OAT F, osciliatoxin F]	97.5 ± 2.2	98.8 ± 1.99	95.3 ± 1.92	85.5 ± 2.91	no apparent effect		
CO[C@@H](CC[C@H](C)[C@H]1O[C@@]23C[C@H](OC(=O)C[C@H]([C@@H](C)O)OC(=O)C[C@](O)(O2)[C@H](C)CC3(C)C)[C@@H]1C)c1cccc(O)c1 [DAT, debromoaplysiatoxin]						0.1	survival at 0.1 µM (Artemia salina; 0.1 µM): 70.9 ± 6.3%; survival at 1 µM (Artemia salina; 1 µM): 0%; survival at 10 µM (Artemia salina; 10 µM): 0%; survival at 30 µM (Artemia salina; 30 µM): 0%; IC50 (potassium channel Kv1.5 [1]; ref [33]): 1280 ± 80 nM; PKC activation (in words) (protein kinase C (PKC)): strong PKC activation
CO[C@@H](CC[C@H](C)[C@H]1O[C@@]23C[C@H](OC(=O)C2=C(O)[C@H](C)CC3(C)C)[C@@H]1C)c1cccc(O)c1 [NEO-B, neo-debromoaplysiatoxin B]							IC50 (potassium channel Kv1.5 [1]; ref [20],[21],[33]): 300 ± 50 nM
COC(CCC(C)C1OC23CC(OC(=O)CC(C(C)O)OC(=O)CC4(CC2(C)CC4(C)O)O3)C1C)c1cccc(O)c1 (centres unmarked) [Compound 1, neo-debromoaplysiatoxin G]	98 ± 3.4	92.6 ± 1.54	92.4 ± 4.71	91.8 ± 7.73	no apparent effect		IC50 (potassium channel Kv1.5 [2]): 1790 ± 220 nM
